According to publication PMC6681697, “One-Step ^18F-Labeling and Preclinical Evaluation of Prostate-Specific Membrane Antigen Trifluoroborate Probes for Cancer Imaging” (Journal of Nuclear Medicine, 2019):

Tests used:
[1] = Distribution coefficient (LogD7.4), shake flask method; format: physicochemical; details: n-octanol / phosphate buffer 0.1 M pH 7.4; n = 3
Protocol: LogD7.4 values were measured using the shake flask method. Briefly, an aliquot of ^18F-labeled tracer was added to a vial containing 2.5 mL of n-octanol and 2.5 mL of phosphate buffer (0.1 M, pH 7.4). The mixture was vortexed for 2 min and then centrifuged at 3,000g for 10 min. A sample of the n-octanol (0.1 mL) and buffer (0.1 mL) layers was counted using a γ-counter. Values of LogD7.4 were calculated using the following equation: LogD7.4 = log10 [(counts in n-octanol phase)/(counts in buffer phase)].

PSMA = molecular target: T1, PSMA (Homo sapiens, UniProt Q04609); test: In vitro competition binding assay on LNCaP cells with ^18F-DCFPyL as radioligand
T1 construct: because it expresses PSMA endogenously and is commonly used to evaluate PSMA-targeting radiotracers; endogenous in cells; host or cells: LNCaP cells
Protocol: LNCaP cells were plated onto a 24-well poly-D-lysine coated plate for 48 h (400,000/well). […] Nonspecific binding was determined in the presence of 10 μM unlabeled DCFPyL. The assay mixtures were incubated for 1 h at 37°C with gentle agitation followed by 2 washes with cold HEPES buffered saline. A trypsin solution (0.25%, 400 μL) was then added to each well to harvest the cells. Radioactivity was measured by γ-counting, and Ki values were calculated using the “1 site—fit Ki” built-in model in Prism 7 (GraphPad).

LNCaP xenografts = test: Ex vivo biodistribution and blocking studies in mice bearing LNCaP xenografts; details: for tumor uptake compared with ^18F-DCFPyL: 1-way ANOVA, Dunnett test; for tumor uptake: LNCaP tumor
Protocol: Imaging and biodistribution experiments were performed using NODSCID IL2RγKO male mice. All experiments were conducted according to the guidelines established by the Canadian Council on Animal Care and approved by the Animal Ethics Committee of the University of British Columbia. Mice were anesthetized by inhalation with 2% isoflurane in oxygen and implanted subcutaneously with 1 × 10^7 LNCaP cells behind the left shoulder. The mice were imaged or used in biodistribution studies once the tumor reached 5–8 mm in diameter (5–6 wk).
For biodistribution and blocking studies, the mice were injected with 1–3 MBq of radiotracer. At 60 min, the mice were anesthetized with 2% isoflurane inhalation and euthanized by CO2 inhalation. Blood was withdrawn by cardiac puncture, and the organs and tissues of interest were collected, weighed, and counted using an automatic γ-counter (PerkinElmer). Uptake values were expressed as the percentage of the injected dose per gram of tissue (%ID/g).
A standard 1-way ANOVA was performed to determine whether statistically significant differences in tumor uptake occurred between radiotracers. Each radiotracer was compared with ^18F-DCFPyL using the Dunnett test (a many-to-one t test comparison). This analysis was also performed for kidney and blood activity and for tumor-to-blood and tumor-to-muscle ratios. Reported P values were adjusted for multiple comparisons. The analysis was performed using Prism 8 (GraphPad). […]
Statistical analyses were performed using GradPad prism 7. Multiple t tests were performed to compare biodistribution in unblocked and blocked mice, multiple comparisons were corrected using the Holm-Sidak method. The difference was considered statistically significant when p value was < 0.05.
Supplemental Table 1 – Complete biodistribution study for compounds [18F]1–3 […]
Tissue 1h 1h blocked 1h 1h blocked 1h 1h blocked
(%ID/g) n = 8 n = 4 n = 6 n = 4 n = 8 n = 5 […]
(1 picture or pasted object on this page, not shown here)

[2] = 1 h blocked (coinjection of DCFPyL 0.5 mg)

T1 sequence (Q04609 whole entry): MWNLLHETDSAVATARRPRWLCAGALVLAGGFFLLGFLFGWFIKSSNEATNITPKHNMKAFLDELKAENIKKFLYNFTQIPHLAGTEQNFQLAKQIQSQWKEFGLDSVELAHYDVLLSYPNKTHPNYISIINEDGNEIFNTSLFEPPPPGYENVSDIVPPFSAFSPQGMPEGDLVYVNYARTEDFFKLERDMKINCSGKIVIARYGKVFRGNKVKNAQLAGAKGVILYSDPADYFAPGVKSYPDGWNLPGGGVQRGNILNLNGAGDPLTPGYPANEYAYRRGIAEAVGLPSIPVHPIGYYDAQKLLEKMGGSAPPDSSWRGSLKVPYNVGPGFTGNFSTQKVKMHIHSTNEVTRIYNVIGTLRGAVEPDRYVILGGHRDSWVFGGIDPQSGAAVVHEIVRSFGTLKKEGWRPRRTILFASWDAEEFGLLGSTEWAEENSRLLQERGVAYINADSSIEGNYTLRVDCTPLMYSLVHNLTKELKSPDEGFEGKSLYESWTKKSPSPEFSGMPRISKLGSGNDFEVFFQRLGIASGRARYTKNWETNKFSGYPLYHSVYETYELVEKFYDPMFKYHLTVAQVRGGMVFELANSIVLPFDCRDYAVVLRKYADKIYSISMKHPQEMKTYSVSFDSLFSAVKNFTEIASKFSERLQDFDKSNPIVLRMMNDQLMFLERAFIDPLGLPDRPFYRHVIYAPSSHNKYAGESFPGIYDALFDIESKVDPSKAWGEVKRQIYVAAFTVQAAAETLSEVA

## O=C(O)CC[C@H](NC(=O)N[C@@H](CCCCNC(=O)c1ccc(Cn2cc(C[n+]3ccc([B-](F)(F)F)cc3)nn2)nc1)C(=O)O)C(=O)O [^18F-4]
[1]
  logD at 2 min: -3.34 ± 0.02
PSMA
  Ki: 27.6 ± 3.8 nM
LNCaP xenografts; 1 h after injection, unblocked
  T/B (tumor-to-blood ratio): 8.70 ± 1.74
  T/K (tumor-to-kidney ratio): 0.04 ± 0.02
  T/M (tumor-to-muscle ratio): 23.40 ± 5.00
  adrenal uptake: 6.66 ± 2.33 %ID/g
  blood uptake: 0.74 ± 0.15 %ID/g
  bone uptake: 0.76 ± 0.57 %ID/g
  brain uptake: 0.05 ± 0.01 %ID/g
  fat uptake: 1.05 ± 0.49 %ID/g
  heart uptake: 0.34 ± 0.08 %ID/g
  intestine uptake: 0.48 ± 0.22 %ID/g
  kidney uptake: 164.33 ± 50.20 %ID/g
  liver uptake: 1.28 ± 0.18 %ID/g
  lung uptake: 1.67 ± 0.47 %ID/g
  muscle uptake: 0.28 ± 0.07 %ID/g
  pancreas uptake: 0.68 ± 0.50 %ID/g
  spleen uptake: 3.36 ± 1.08 %ID/g
  stomach uptake: 0.15 ± 0.03 %ID/g
  testes uptake: 0.67 ± 0.27 %ID/g
LNCaP xenografts; 1 h after injection
  tumor uptake compared with ^18F-DCFPyL: lower tumor uptake than ^18F-DCFPyL
LNCaP xenografts; [2]
  T/B (tumor-to-blood ratio): 0.75 ± 0.18
  T/K (tumor-to-kidney ratio): 0.11 ± 0.03
  T/M (tumor-to-muscle ratio): 1.91 ± 0.46
  adrenal uptake: 0.26 ± 0.15 %ID/g
  blood uptake: 0.24 ± 0.11 %ID/g
  bone uptake: 0.56 ± 0.20 %ID/g
  brain uptake: 0.02 ± 0.01 %ID/g
  fat uptake: 0.04 ± 0.03 %ID/g
  heart uptake: 0.09 ± 0.04 %ID/g
  intestine uptake: 0.18 ± 0.04 %ID/g
  kidney uptake: 1.62 ± 0.73 %ID/g
  liver uptake: 0.90 ± 0.25 %ID/g
  lung uptake: 0.19 ± 0.09 %ID/g
  muscle uptake: 0.11 ± 0.08 %ID/g
  pancreas uptake: 0.08 ± 0.03 %ID/g
  spleen uptake: 0.13 ± 0.06 %ID/g
  stomach uptake: 0.06 ± 0.02 %ID/g
  testes uptake: 0.08 ± 0.03 %ID/g
  tumor uptake: 0.18 ± 0.11 %ID/g
LNCaP xenografts; 1 h after injection, unblocked, listed as 4
  tumor uptake: 6.3 ± 0.8 %ID/g
LNCaP xenografts; 1 h after injection, unblocked, listed as [18F]4
  tumor uptake: 6.26 ± 0.82 %ID/g

## C[N+](C)(Cc1cn(CC(=O)NC[C@H]2CC[C@H](C(=O)N[C@@H](Cc3ccc4ccccc4c3)C(=O)NCCCC[C@H](NC(=O)N[C@@H](CCC(=O)O)C(=O)O)C(=O)O)CC2)nn1)C[B-](F)(F)F [^18F-5]
[1]
  logD at 2 min: -3.52 ± 0.21
PSMA
  Ki: 1.14 ± 0.26 nM
LNCaP xenografts; 1 h after injection
  intestinal activity compared with ^18F-DCFPyL: significantly higher intestinal activity than ^18F-DCFPyL
  tumor uptake compared with ^18F-DCFPyL: No statistically significant differences
LNCaP xenografts; 1 h after injection, unblocked
  T/B (tumor-to-blood ratio): 17.12 ± 5.40
  T/K (tumor-to-kidney ratio): 0.21 ± 0.08
  T/M (tumor-to-muscle ratio): 49.67 ± 28.45
  adrenal uptake: 2.89 ± 1.94 %ID/g
  blood uptake: 0.89 ± 0.42 %ID/g
  bone uptake: 0.34 ± 0.14 %ID/g
  brain uptake: 0.04 ± 0.01 %ID/g
  fat uptake: 0.83 ± 0.33 %ID/g
  heart uptake: 0.31 ± 0.11 %ID/g
  intestine uptake: 12.96 ± 4.61 %ID/g
  kidney uptake: 73.86 ± 35.21 %ID/g
  liver uptake: 1.14 ± 0.48 %ID/g
  lung uptake: 1.21 ± 0.48 %ID/g
  muscle uptake: 0.36 ± 0.18 %ID/g
  pancreas uptake: 0.30 ± 0.17 %ID/g
  spleen uptake: 3.21 ± 1.73 %ID/g
  stomach uptake: 0.37 ± 0.45 %ID/g
  testes uptake: 0.74 ± 0.55 %ID/g
  tumor uptake: 13.96 ± 5.20 %ID/g
LNCaP xenografts; [2]
  T/B (tumor-to-blood ratio): 0.95 ± 0.10
  T/K (tumor-to-kidney ratio): 0.41 ± 0.09
  T/M (tumor-to-muscle ratio): 2.85 ± 0.70
  adrenal uptake: 0.34 ± 0.09 %ID/g
  blood uptake: 0.44 ± 0.02 %ID/g
  bone uptake: 0.17 ± 0.03 %ID/g
  brain uptake: 0.02 ± 0.00 %ID/g
  fat uptake: 0.16 ± 0.06 %ID/g
  heart uptake: 0.15 ± 0.00 %ID/g
  intestine uptake: 12.36 ± 0.55 %ID/g
  kidney uptake: 1.04 ± 0.14 %ID/g
  liver uptake: 0.67 ± 0.13 %ID/g
  lung uptake: 0.39 ± 0.01 %ID/g
  muscle uptake: 0.15 ± 0.02 %ID/g
  pancreas uptake: 0.13 ± 0.06 %ID/g
  spleen uptake: 0.21 ± 0.02 %ID/g
  stomach uptake: 0.12 ± 0.10 %ID/g
  testes uptake: 0.24 ± 0.05 %ID/g
  tumor uptake: 0.41 ± 0.04 %ID/g

## O=C(O)CC[C@H](NC(=O)N[C@@H](CCCCNC(=O)[C@H](Cc1ccc2ccccc2c1)NC(=O)[C@H]1CC[C@H](CNC(=O)Cn2cc(C[n+]3ccc([B-](F)(F)F)cc3)nn2)CC1)C(=O)O)C(=O)O [^18F-6]
[1]
  LogD7.4: most lipophilic compound of the series
  logD at 2 min: -2.28 ± 0.01
PSMA
  Ki: 1.9 ± 0.68 nM
LNCaP xenografts; 1 h after injection
  intestinal activity compared with ^18F-DCFPyL: significantly higher intestinal activity than ^18F-DCFPyL
  tumor uptake compared with ^18F-DCFPyL: No statistically significant differences
LNCaP xenografts; 1 h after injection, unblocked
  T/B (tumor-to-blood ratio): 19.80 ± 7.23
  T/K (tumor-to-kidney ratio): 0.14 ± 0.02
  T/M (tumor-to-muscle ratio): 72.20 ± 13.46
  adrenal uptake: 2.14 ± 0.61 %ID/g
  blood uptake: 0.68 ± 0.26 %ID/g
  bone uptake: 0.56 ± 0.14 %ID/g
  brain uptake: 0.03 ± 0.01 %ID/g
  fat uptake: 0.38 ± 0.14 %ID/g
  heart uptake: 0.22 ± 0.03 %ID/g
  intestine uptake: 23.05 ± 4.39 %ID/g
  kidney uptake: 83.22 ± 6.07 %ID/g
  liver uptake: 0.98 ± 0.22 %ID/g
  lung uptake: 1.05 ± 0.14 %ID/g
  muscle uptake: 0.17 ± 0.02 %ID/g
  pancreas uptake: 0.26 ± 0.06 %ID/g
  spleen uptake: 1.77 ± 0.70 %ID/g
  stomach uptake: 1.17 ± 1.35 %ID/g
  testes uptake: 0.33 ± 0.05 %ID/g
LNCaP xenografts; [2]
  T/B (tumor-to-blood ratio): 0.72 ± 0.43
  T/K (tumor-to-kidney ratio): 0.29 ± 0.07
  T/M (tumor-to-muscle ratio): 3.78 ± 0.17
  adrenal uptake: 0.20 ± 0.04 %ID/g
  blood uptake: 1.64 ± 2.58 %ID/g
  bone uptake: 0.57 ± 0.37 %ID/g
  brain uptake: 0.03 ± 0.03 %ID/g
  fat uptake: 0.06 ± 0.02 %ID/g
  heart uptake: 0.17 ± 0.07 %ID/g
  intestine uptake: 24.50 ± 4.86 %ID/g
  kidney uptake: 1.30 ± 0.25 %ID/g
  liver uptake: 0.87 ± 0.17 %ID/g
  lung uptake: 0.43 ± 0.23 %ID/g
  muscle uptake: 0.10 ± 0.02 %ID/g
  pancreas uptake: 0.16 ± 0.14 %ID/g
  spleen uptake: 0.18 ± 0.10 %ID/g
  stomach uptake: 0.88 ± 0.41 %ID/g
  testes uptake: 0.14 ± 0.04 %ID/g
  tumor uptake: 0.37 ± 0.10 %ID/g
LNCaP xenografts; 1 h after injection, unblocked, listed as 6
  tumor uptake: 11.9 ± 2.3 %ID/g
LNCaP xenografts; 1 h after injection, unblocked, listed as [18F]6
  tumor uptake: 11.94 ± 2.29 %ID/g
